Counter-ions that a name gives are not always drawn.
Key:
[1] = tested on: oxidative stress (ROS, oxidized glutathione, lipid peroxidation); assay: Blood ROS, lung oxidized glutathione and lung lipid peroxidation in aged-injured mice; format: in vivo, mouse; details: for blood ROS levels: aged-injured mice
Method: Oral-DMF (n=7); intranasal-DMF (n=6).
Oral-vehicle (n=5); oral-DMF (n=5); intranasal-vehicle (n=3); intranasal-DMF (n=4).
Oral-vehicle (n=5); oral-DMF, (n=5); intranasal-vehicle (n=4); intranasal-DMF (n=3).
(§1) At 3 weeks post-bleomycin administration, mice were randomly assigned to one of four treatment groups. Between 3-6 weeks post-injury, DMF or vehicle (sterile PBS) was administered daily by oral gavage (240 μg/dose in 150 μL total volume) (Table 1) using a gavage tube. In parallel, mice were anesthetized using isoflurane and administered DMF or vehicle (sterile PBS) daily by intranasal instillation (80 μg/dose in 50 μL total volume) (Table 1). The control animals received vehicle only. Dosing was based on the solubility of this compound in the vehicle in the total volume used for administration (DMF was dissolved in sterile PBS at 42° C. and sonicated for 50 min). Mice were monitored for body-weight changes and survival. Mice were removed from the study when greater than 20% weight loss was observed compared to pre-surgery (day 0) or lack of responsiveness to touch. At 6 weeks post-injury, mice were sacrificed by CO2 inhalation.
(§2) In summary, lung-targeted treatment with DMF via inhaled delivery (as compared to oral delivery) can more effectively rescue local Nrf2 expression levels and promote redox homeostasis in the lungs.

[2] = tested on: IPF lung fibroblasts; assay: Collagen-1 expression in IPF lung fibroblasts (Western blot, densitometry); format: cell-based, human; details: vs vehicle
Excerpt: Since primary mesenchymal cells isolated from IPF lungs represent a heterogeneous population of both fibroblasts and myofibroblasts “(myo)fibroblasts”, the efficacy of DMF was evaluate on both TGF-beta-induced and established profibrogenic phenotypes of these cells. […]

[3] = tested on: IPF lung fibroblasts; assay: H2O2 production in IPF lung fibroblasts (Amplex Red assay); format: cell-based, human; details: 24 h
Method: IPF lung fibroblasts were treated with DMF (1 μM) or vehicle (DMSO) followed by treatment TGF-b (2 ng/ml). H2O2 levels were evaluated at 24 h by Amplex™ Red assay.
Culture supernatant was evaluated for H2O2 levels at 24 h by Amplex™ Red assay.
Since primary mesenchymal cells isolated from IPF lungs represent a heterogeneous population of both fibroblasts and myofibroblasts “(myo)fibroblasts”, the efficacy of DMF was evaluate on both TGF-beta-induced and established profibrogenic phenotypes of these cells. To determine if DMF treatment can inhibit fibrogenic responses induced by TGF-beta, cells were pre-treated with DMF or vehicle followed by treatment with TGF-beta for 24 h.

[4] = tested on: Nrf2; assay: Lung Nrf2 expression in aged-injured mice (densitometric analysis); format: in vivo, mouse
Method: Oral-vehicle (n=7); oral-DMF (n=7); intranasal-vehicle (n=4); intranasal-DMF (n=4).
as §1, §2

[5] = tested on: aged mice with bleomycin-induced persistent lung fibrosis; assay: Aging murine model of bleomycin-induced persistent lung fibrosis: reversal of established fibrosis; format: in vivo, mouse; details: 3-6 weeks post-injury
Method: as §1, with “C57BL/6 aged (18 month) female mice received an intratracheal instillation of bleomycin (0.02875 U/mouse). DMF was administered daily by oral gavage (240 μg/150 μL in sterile PBS/mouse) or intranasal instillation (80 μg/50 μL in sterile PBS/mouse) from 3-6 weeks post-injury. Lung tissue was assessed by hematoxylin and eosin (H&E) staining for histopathology and Masson's trichrome blue staining for collagen. […] At 3” for “At 3”, “CO2 inhalation. This aging model of bleomycin-induced persistent lung fibrosis enables the evaluation of therapeutic agents for their efficacy in reversing age-dependent established fibrosis. […] Using the same injury model and treatment protocol, aged mice were administered DMF or vehicle daily via intranasal delivery from 3-6 weeks post-injury.” for “CO2 inhalation.”

[6] = tested on: IPF lung fibroblasts; details: sulforaphane treatment (Nrf2 activation); cited from earlier work
[7] = intranasal delivery, 80 μg/dose daily, vs vehicle or oral DMF
[8] = intranasal 80 μg/dose daily, vs vehicle and oral DMF
[9] = oral gavage 240 μg/dose daily, aged mice

| Compound | blood ROS levels ([1]; intranasal delivery, 80 μg/dose daily) | lung lipid peroxidation [1, 7] | lung oxidized glutathione levels [1, 7] | blood ROS levels ([1]; oral administration, 240 μg/dose daily) | TGF-beta-induced expression of collagen-1 ([2]; DMF 1 μM pre-treatment, then TGF-b 2 ng/ml, 48 h) | production of collagen-1 (established pro-fibrotic phenotype) ([2]; DMF 1 μM, no TGF-beta, 24 h) | TGF-beta-induced production of ROS, specifically H2O2 ([3]; DMF 1 μM pre-treatment, then TGF-b 2 ng/ml, vs vehicle (DMSO)) | production of H2O2 (established pro-fibrotic phenotype) ([3]; DMF 1 μM, no TGF-beta, culture supernatant, vs vehicle) | lung Nrf2 expression levels ([4]; intranasal delivery, 80 μg/dose daily, aged-injured mice) | lung Nrf2 expression levels ([4]; oral administration, 240 μg/dose daily, aged mice with established fibrosis) | resolution of age-dependent established lung fibrosis (histopathology) ([5]; intranasal 80 μg/dose daily, aged mice) | lung collagen deposition (Masson's trichrome) [5, 8] | lung collagen-1 expression levels [5, 8] | lung fibronectin expression levels [5, 8] | lung hydroxyproline levels [5, 8] | lung fibrosis compared with vehicle-treated mice [5, 9] | resolution of age-dependent established lung fibrosis [5, 9] | antioxidant responses in IPF lung fibroblasts [6] | dedifferentiation of IPF myofibroblast [6] |
| --- | --- | --- | --- | --- | --- | --- | --- | --- | --- | --- | --- | --- | --- | --- | --- | --- | --- | --- | --- |
| COC(=O)/C=C/C(=O)OC [DMF, dimethyl fumarate] | did not impact | significantly reduced | significantly reduced | reduced blood ROS levels | inhibition | significantly inhibited | significantly reduced | significantly inhibited | significantly increased | failed to rescue | resulted in resolution | reduced collagen deposition | significantly decreased | significantly decreased | decreased lung hydroxyproline levels | indistinguishable from vehicle-treated mice | failed to promote the resolution | – | – |
| C[S+]([O-])CCCCN=C=S (stereo not shown) [sulforaphane] | – | – | – | – | – | – | – | – | – | – | – | – | – | – | – | – | – | restored antioxidant responses | promoted dedifferentiation |
